Results from patent US6914045B2, “Glycopeptide antibiotics” (Wyeth Holdings Corporation, priority 2001, dated 2005).
Values after ≈ are worked out from the molar mass of the structure shown.

Key:
Assay in all cases: in vitro antibacterial evaluation, MIC by broth dilution
Format in all cases: cell-based
[1] = test system: Enterococcus sp.; conditions: broth dilution, 18 hours at 35° C.
Method in brief: (§1)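 MIC, the lowest antibiotic concentration preventing growth, was read across 64-0.06 μg/mL with 5×10^5 CFU/mL inoculum. Method followed NCCLS M7-A2 broth dilution using Mueller-Hinton II; Gram-positive strains covered recent methicillin-, penicillin- and/or vancomycin-resistant clinical isolates.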

[2] = test system: Escherichia coli; conditions: 18 hours at 35° C.
Method in brief: as §1

[3] = test system: Staphylococcus sp.; conditions: broth dilution, 18 hours at 35° C.
Method in brief: as §1

[4] = test system: Streptococcus sp.; conditions: broth dilution, 18 hours at 35° C.
Method in brief: as §1

SMILES: CC(C)=CCCC(C)CC1OCC2OC(OC3C(CO)OC(Oc4ccc(CC5NC(=O)C(C(C)c6ccccc6)NC(=O)CNC(=O)C(CO)NC(=O)C(C(O)C6CNC(=N)N6C6OC(CO)C(O)C(O)C6O)NC(=O)C(C(O)C6CNC(=N)N6)NC5=O)cc4)C(O)C3O)C(O)C(O)C2O1 (stereo not shown) [Example 126]
- MIC Enterococcus avium (GC 4558) ([1]; Enterococcus avium (GC 4558)): 8 µg/mL (≈ 5.59 µM)
- MIC Enterococcus faecalis (ATCC 29212) ([1]; Enterococcus faecalis (ATCC 29212)): 8 µg/mL (≈ 5.59 µM)
- MIC Enterococcus faecalis (GC 2242) ([1]; Enterococcus faecalis (GC 2242)): 8 µg/mL (≈ 5.59 µM)
- MIC Enterococcus faecalis (GC 2691) ([1]; Enterococcus faecalis (GC 2691)): 8 µg/mL (≈ 5.59 µM)
- MIC Enterococcus faecalis (GC 3059) ([1]; Enterococcus faecalis (GC 3059)): 8 µg/mL (≈ 5.59 µM)
- MIC Enterococcus faecalis (GC 4552) ([1]; Enterococcus faecalis (GC 4552)): 8 µg/mL (≈ 5.59 µM)
- MIC Enterococcus faecalis (GC 4553) ([1]; Enterococcus faecalis (GC 4553)): 8 µg/mL (≈ 5.59 µM)
- MIC Enterococcus faecalis (GC 4554) ([1]; Enterococcus faecalis (GC 4554)): 8 µg/mL (≈ 5.59 µM)
- MIC Enterococcus faecalis (GC 6189) ([1]; Enterococcus faecalis (GC 6189)): 8 µg/mL (≈ 5.59 µM)
- MIC Enterococcus faecium (GC 2243) ([1]; Enterococcus faecium (GC 2243)): 8 µg/mL (≈ 5.59 µM)
- MIC Enterococcus faecium (GC 4556) ([1]; Enterococcus faecium (GC 4556)): 8 µg/mL (≈ 5.59 µM)
- MIC Enterococcus faecium (GC 4557) ([1]; Enterococcus faecium (GC 4557)): 8 µg/mL (≈ 5.59 µM)
- MIC Enterococcus faecalis (ATCC 29212) ([1]; strain ATCC 29212): 8 µg/mL (≈ 5.59 µM)
- MIC Enterococcus faecalis (GC 2242) ([1]; strain GC 2242): 8 µg/mL (≈ 5.59 µM)
- MIC Enterococcus faecium (GC 2243) ([1]; strain GC 2243): 8 µg/mL (≈ 5.59 µM)
- MIC Enterococcus faecalis (GC 2691) ([1]; strain GC 2691): 8 µg/mL (≈ 5.59 µM)
- MIC Enterococcus faecalis (GC 3059) ([1]; strain GC 3059): 8 µg/mL (≈ 5.59 µM)
- MIC Enterococcus faecalis (GC 4552) ([1]; strain GC 4552): 8 µg/mL (≈ 5.59 µM)
- MIC Enterococcus faecalis (GC 4553) ([1]; strain GC 4553): 8 µg/mL (≈ 5.59 µM)
- MIC Enterococcus faecalis (GC 4554) ([1]; strain GC 4554): 8 µg/mL (≈ 5.59 µM)
- MIC Enterococcus faecium (GC 4556) ([1]; strain GC 4556): 8 µg/mL (≈ 5.59 µM)
- MIC Enterococcus faecium (GC 4557) ([1]; strain GC 4557): 8 µg/mL (≈ 5.59 µM)
- MIC Enterococcus avium (GC 4558) ([1]; strain GC 4558): 8 µg/mL (≈ 5.59 µM)
- MIC Enterococcus faecalis (GC 6189) ([1]; strain GC 6189): 8 µg/mL (≈ 5.59 µM)
- MIC Escherichia coli (ATCC 25922) ([2]; strain ATCC 25922): 64 µg/mL (≈ 44.7 µM)
- MIC Escherichia coli (GC 4559) ([2]; strain GC 4559): 64 µg/mL (≈ 44.7 µM)
- MIC Escherichia coli (GC 4560) ([2]; strain GC 4560): 8 µg/mL (≈ 5.59 µM)
- MIC Staphylococcus aureus (ATCC 29213) [3]: 8 µg/mL (≈ 5.59 µM)
- MIC Staphylococcus aureus (GC 1131) [3]: 8 µg/mL (≈ 5.59 µM)
- MIC Staphylococcus aureus (GC 3051) [3]: 8 µg/mL (≈ 5.59 µM)
- MIC Staphylococcus aureus (GC 3053) [3]: 8 µg/mL (≈ 5.59 µM)
- MIC Staphylococcus aureus (GC 4541) [3]: 8 µg/mL (≈ 5.59 µM)
- MIC Staphylococcus aureus (GC 4542) [3]: 8 µg/mL (≈ 5.59 µM)
- MIC Staphylococcus aureus (GC 4544) [3]: 8 µg/mL (≈ 5.59 µM)
- MIC Staphylococcus aureus (GC 4545) [3]: 8 µg/mL (≈ 5.59 µM)
- MIC Staphylococcus aureus (GC 1131) ([3]; inoculum 5×10^5 CFU/mL, strain GC 1131): 8 µg/mL (≈ 5.59 µM)
- MIC Staphylococcus aureus (ATCC 29213) ([3]; strain ATCC 29213): 8 µg/mL (≈ 5.59 µM)
- MIC Staphylococcus aureus (GC 3051) ([3]; strain GC 3051): 8 µg/mL (≈ 5.59 µM)
- MIC Staphylococcus aureus (GC 3053) ([3]; strain GC 3053): 8 µg/mL (≈ 5.59 µM)
- MIC Staphylococcus aureus (GC 4541) ([3]; strain GC 4541): 8 µg/mL (≈ 5.59 µM)
- MIC Staphylococcus aureus (GC 4542) ([3]; strain GC 4542): 8 µg/mL (≈ 5.59 µM)
- MIC Staphylococcus aureus-SMITH (GC 4543) ([3]; strain GC 4543): 8 µg/mL (≈ 5.59 µM)
- MIC Staphylococcus aureus (GC 4544) ([3]; strain GC 4544): 8 µg/mL (≈ 5.59 µM)
- MIC Staphylococcus aureus (GC 4545) ([3]; strain GC 4545): 8 µg/mL (≈ 5.59 µM)
- MIC Staphylococcus haemolyticus (GC 4546) ([3]; strain GC 4546): 8 µg/mL (≈ 5.59 µM)
- MIC Coagulase Negative Staphylococcus (GC 4547) ([3]; strain GC 4547): 8 µg/mL (≈ 5.59 µM)
- MIC Coagulase Negative Staphylococcus (GC 4548) ([3]; strain GC 4548): 8 µg/mL (≈ 5.59 µM)
- MIC Coagulase Negative Staphylococcus (GC 4549) ([3]; strain GC 4549): 8 µg/mL (≈ 5.59 µM)
- MIC Coagulase Negative Staphylococcus (GC 4551) ([3]; strain GC 4551): 8 µg/mL (≈ 5.59 µM)
- MIC Coagulase Negative Staphylococcus (GC 6257) ([3]; strain GC 6257): 8 µg/mL (≈ 5.59 µM)
- MIC Staphylococcus aureus-SMITH (GC 4543) ([3]; strain SMITH GC 4543): 8 µg/mL (≈ 5.59 µM)
- MIC Streptococcus agalactiae (GC 4564) ([4]; Streptococcus agalactiae (GC 4564)): 1 µg/mL (≈ 0.699 µM)
- MIC Streptococcus pneumoniae (ATCC 6301) ([4]; Streptococcus pneumoniae (ATCC 6301)): <0.06 µg/mL
- MIC Streptococcus pneumoniae (GC 1894) ([4]; Streptococcus pneumoniae (GC 1894)): <0.06 µg/mL
- MIC Streptococcus pneumoniae (GC 4565) ([4]; Streptococcus pneumoniae (GC 4565)): <0.06 µg/mL
- MIC Streptococcus pyogenes (GC 4563) ([4]; Streptococcus pyogenes (GC 4563)): 0.12 µg/mL (≈ 0.0838 µM)
- MIC Streptococcus pneumoniae (ATCC 6301) ([4]; strain ATCC 6301): <0.06 µg/mL
- MIC Streptococcus pneumoniae (GC 1894) ([4]; strain GC 1894): <0.06 µg/mL
- MIC Streptococcus pyogenes (GC 4563) ([4]; strain GC 4563): 0.12 µg/mL (≈ 0.0838 µM)
- MIC Streptococcus agalactiae (GC 4564) ([4]; strain GC 4564): 1 µg/mL (≈ 0.699 µM)
- MIC Streptococcus pneumoniae (GC 4565) ([4]; strain GC 4565): <0.06 µg/mL
